Measured values taken from BigSolDB 2.1.

O=C(O)c1cccnc1
solubility (mole fraction)
Details	in DMSO	in acetone	in ethanol	in ethyl acetate	in isopropanol	in methanol	in n-butanol	in n-propanol	in water
283.15 K	0.0437	0.00062	0.00202	0.00033	0.00177	0.00238	0.0014	0.00179	0.00165
293.15 K	0.0576	0.00104	0.00312	0.00054	0.00276	0.00382	0.00231	0.00285	0.00215
303.15 K	0.0722	0.00166	0.00468	0.00093	0.00418	0.00587	0.00351	0.00435	0.00279
313.15 K	0.0889	0.00262	0.00683	0.00149	0.00617	0.00889	0.00554	0.00641	0.00363
323.15 K	0.107	0.00408	0.00978	0.00246	0.00891	0.0129	0.00855	0.00923	0.00458
333.15 K	0.127	–	0.0136	0.00401	0.0125	–	0.0123	0.0131	0.00576
343.15 K	0.15	–	0.0188	0.00603	0.0172	–	0.0178	0.0186	0.00704
353.15 K	–	–	–	–	–	–	0.0253	–	0.00872
363.15 K	–	–	–	–	–	–	–	–	0.0107
